According to paper PMC7616174, “Development of Novel 4-Arylpyridin-2-one and 6-Arylpyrimidin-4-one Positive Allosteric Modulators of the M1 Muscarinic Acetylcholine Receptor” (ChemMedChem, 2020):
Like-named read-outs stand apart in the source and are kept apart here.

How the values were obtained:
M1 mAChR = biological target: T1, M1 mAChR (Homo sapiens, UniProt P11229); test: β-arrestin 2 recruitment assay (BRET); format: cell-based; settings: for αβ (functional cooperativity with ACh) / τB (intrinsic efficacy of the modulator): antilog, in parentheses; for log τB (logarithm of intrinsic efficacy of the modulator) / log αβ (logarithm of functional cooperativity between ACh and modulator): operational model; for log αβ (logarithm of functional cooperativity between ACh and modulator): pKB constrained to binding value
T1 construct: expressed in transfected cells; host or cells: parental FlpIn CHO cells (transient, PEI)
T1 sequence (P11229 1-460): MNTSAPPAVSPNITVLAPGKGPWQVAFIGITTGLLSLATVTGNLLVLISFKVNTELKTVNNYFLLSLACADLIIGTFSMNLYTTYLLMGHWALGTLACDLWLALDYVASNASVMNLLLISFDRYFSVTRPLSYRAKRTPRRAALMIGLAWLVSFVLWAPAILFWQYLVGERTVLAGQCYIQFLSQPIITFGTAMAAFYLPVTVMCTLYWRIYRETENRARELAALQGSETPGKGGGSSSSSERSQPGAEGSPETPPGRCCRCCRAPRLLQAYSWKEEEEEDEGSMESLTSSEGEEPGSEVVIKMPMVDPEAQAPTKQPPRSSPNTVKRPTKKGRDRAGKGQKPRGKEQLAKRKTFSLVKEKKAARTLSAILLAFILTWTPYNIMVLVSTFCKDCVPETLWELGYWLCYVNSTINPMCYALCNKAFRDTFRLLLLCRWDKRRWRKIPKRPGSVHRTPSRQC
Text: (§1) The compounds were then fully characterised in two functional assays (Figure 2C and D); the Gq-coupled IP1 accumulation assay (Figure S2), which was used for the initial screening of the compounds, and a β-arrestin 2 recruitment assay (Figure S3). The operational efficacy (τB) values for the modulators and their functional cooperativity estimates with ACh (logαβACh) at both signalling pathways were estimated by applying an operational model of allosterism and agonism to the data [Eq. (3)],[16] and are listed in Table 5.
Parental FlpIn CHO cells were plated at 30000 cells/well of 96-well white Culture plates (Perkin Elmer Life Sciences) and transiently transfected with 10 ng/well of M1 Renilla luciferase (Rluc)-8 and 40 ng/well of YFP-β-arrestin 2 using linear polyethyleneimine (PEI/DNA ratio 6:1) diluted in 150 mM NaCl. DNA:PEI complexes were formed by 15 min incubation at room temperature then added to the cells and incubated at 37°C for 24 h prior to use. Cells were then washed and equilibrated in Hanks’ balanced salt solution for 1 h at 37°C. Coelenterazine h at a final concentration of 5 μM was added to each well, followed by addition of increasing concentrations of ACh in the absence or presence of increasing concentrations of each modulator. Lumines-cence and fluorescence signals were measured 5 min after agonist stimulation using the LUMIstar Omega plate reader (BMG LabTech, Offenburg, Germany). […] Data were then normalized to the maximum response to ACh.
(§2) Functional interaction studies between ACh and allosteric modulators in IP1 and β-arrestin 2 recruitment assays were analysed according to a three-parameter logistic equation or the following operational model of allosterism and agonism [Eq. (3)].[16] E=Basal+(Em−Basal)([A](KB+αβ[B])+τB[B]EC50)^n/EC50n(KB+[B])^n+([A](KB+αβ[B])+τB[B]EC50)^n where Em is the maximal possible system response, and Basal is the response in the absence of agonist. [A] and [B] are concentrations of orthosteric and allosteric ligands, respectively. KB is the equilibrium dissociation constant of allosteric ligand, and EC50 is the concentration of orthosteric agonist required to achieve half maximal response. α and β represent the magnitude of the allosteric effects on orthosteric ligand affinity and efficacy, respectively; τB is the efficacy of allosteric ligand, and n is the slope factor of the transducer function that links occupancy to response.

hM1 mAChR [1] = biological target: T2, hM1 mAChR (Homo sapiens, UniProt P11229); test: Whole-cell [3H]NMS equilibrium competition radioligand binding; settings: [3H]NMS binding; for α (binding cooperativity with ACh): antilog
T2 construct: expressed in transfected cells
T2 sequence (P11229 1-460): T1 sequence (P11229 1-460)
Experimental: To determine the affinity (pKB) of the allosteric modulators for the allosteric site, and their binding cooperativity with ACh (log αACh) at the M1 mAChR, whole cell equilibrium competition binding studies were performed, using [^3H]NMS to label the orthosteric site.
FlpIn Chinese hamster ovary (CHO) cells stably expressing the hM1 mAChR were grown in Dulbecco’s modified Eagle’s medium (DMEM) (Invitrogen, Carlsbad, CA) supplemented with 5% foetal bovine serum (FBS) (Thermo-Trace, Melbourne, Australia) and 300 μg/mL G418 (Invitrogen, Carlsbad, CA). The cells were plated at 50,000 cells per well of 96-well white clear bottom plates (Greiner Bio-one, Kremsmünster, Austria), and were grown overnight. The following day, cells were washed twice with Phosphate Buffered Saline (PBS), and incubated with increasing concentrations of ACh (Sigma) in the absence or presence of increasing concentrations of each modulator and 0.2 nM [^3H]NMS (PerkinElmer Life Sciences) in binding buffer (20 mM HEPES, 100 mM NaCl, 10 mM MgCl2, pH 7.4) for 5 h at room temperature. Nonspecific binding was determined using atropine at the final concentration of 10 μM. The assays were terminated by rapid removal of the unbound radioligand followed by two washes with 100 μL/well ice-cold 0.9% NaCl buffer. Radioactivity was determined by addition of 100 μL/well Ultima gold (PerkinElmer Life Sciences) and counting in a MicroBeta plate reader (PerkinElmer Life Sciences).
Binding interaction studies with allosteric ligands were fitted to the following allosteric ternary complex model [Eq. (2)][15] Y=Bmax|A|/[Λ]+[KAKB/α^′[B]+KB][1+[I]/K1+[B]/KB+α[I][B]/KIKB] where Bmax is the total number of receptors, [A], [B] and [I] denote the concentrations of radioligand, allosteric modulator, and orthosteric ligand, respectively; KA, KB and KI are their respective equilibrium dissociation constants. α’ and α are the affinity cooperativity factors between the allosteric ligand and radioligand or the allosteric modulator and ACh, respectively. Values of α or α’ > 1 denote positive cooperativity, values < 1 but > 0 denote negative cooperativity, and a value of 1 indicates neutral coopera-tivity.

hM1 mAChR [2] = biological target: T2, hM1 mAChR; test: IP1 accumulation assay (ACh concentration-response curves in absence or presence of modulator); format: cell-based; settings: for αβ (functional cooperativity with ACh) / τB (intrinsic efficacy of the modulator) / log τB (logarithm of intrinsic efficacy of the modulator) / log αβ (logarithm of functional cooperativity between ACh and modulator): IP1 accumulation; for αβ (functional cooperativity with ACh) / τB (intrinsic efficacy of the modulator): antilog, in parentheses; for log τB (logarithm of intrinsic efficacy of the modulator) / log αβ (logarithm of functional cooperativity between ACh and modulator): operational model; for log αβ (logarithm of functional cooperativity between ACh and modulator): pKB constrained to binding value; for ΔpEC50 [1 μM]: change in ACh pEC50 in presence of M1 PAM compared to control curve / activation at 1 µM: 1 μM modulator; for ΔpEC50 [1 μM]: change in ACh pEC50 in presence of M1 PAM compared to control curve / activation at 1 µM / ΔpEC50 [10 μM]: change in ACh pEC50 in presence of M1 PAM compared to control curve / activation at 10 µM: FlpIn CHO hM1 cells, mean ± SEM, 3 experiments; for activation at 1 µM: read-out: Δbaseline [1 μM]: change in basal response in presence of M1 PAM compared to control curve; for ΔpEC50 [10 μM]: change in ACh pEC50 in presence of M1 PAM compared to control curve / activation at 10 µM: 10 μM modulator; for activation at 10 µM: read-out: Δbaseline [10 μM]: change in basal response in presence of M1 PAM compared to control curve
Experimental: Functional activity of the synthesized analogues as racemic mixtures was investigated in IP1 accumulation assays at the M1 mAChR, as described previously.[13–14] ACh concentration-response curves were generated in the absence or presence of a 1 and 10 μM concentration of each modulator. The change in baseline activity (Δbaseline) is an approximate measure of direct allosteric agonism (τB), whereas the pEC50 shift (ΔpEC50) is an approximate measure of functional cooperativity (αβ) of each modulator with ACh in the investigated signalling pathway. We aimed to identify modulators with various degrees of allosteric agonism and modulatory effects on ACh response, as these could generate distinct in vivo outcomes for applications in different conditions in the CNS or gastrointestinal (GI) tract.[[10g,h,j]]
as §1
FlpIn CHO cells stably expressing the hM1 mAChR were seeded at 25000 per well of 96-well transparent cell culture plates and grown overnight. […] Cells were then stimulated with increasing concentration of ACh in the absence or presence of increasing concentrations of each modulator for 1 h at 37°C. […] Seven μL of cell lysates were transferred into wells of 384-well Proxiplates (Perki-nElmer Life Sciences), and IP1 levels were measured using the IP-One assay kit (Cisbio, Codolet, France). […] The signal was expressed as the HTRF ratio, interpolated from the standard curve, and normalized to the maximum response to ACh.
Changes in both baseline and pEC50 were quantified by subtracting the estimates at each M1 PAM concentrations with the control values. Propagation of the error on baseline and potency values were determined as follows [Eq. (1)]: σΔ=σPAM2+σcont.2 where σΔ is the standard error of the mean (SEM) for the change in value, and σPAM and σcont. are the SEM from the three-parameter logistic equation analysis in presence or absence of M1 PAM, respectively.
as §2

[3] = allosteric ternary complex model, mean ± SEM, read-out: pKB (negative logarithm of the allosteric modulator equilibrium dissociation constant) (converted)
[4] = antilog of pKB, in parentheses, read-out: KB (converted)

αβ (functional cooperativity with ACh) (M1 mAChR)	τB (intrinsic efficacy of the modulator) (M1 mAChR)	log τB (logarithm of intrinsic efficacy of the modulator) (M1 mAChR)	log αβ (logarithm of functional cooperativity between ACh and modulator) (M1 mAChR)	α (binding cooperativity with ACh) (hM1 mAChR [1]; in parentheses)	log αACh (logarithm of binding cooperativity between ACh and modulator) (hM1 mAChR [1]; mean ± SEM)	αβ (functional cooperativity with ACh) (hM1 mAChR [2])	τB (intrinsic efficacy of the modulator) (hM1 mAChR [2])	log τB (logarithm of intrinsic efficacy of the modulator) (hM1 mAChR [2])	log αβ (logarithm of functional cooperativity between ACh and modulator) (hM1 mAChR [2])	Kb (hM1 mAChR [1]; [3]) [µM]	ΔpEC50 [1 μM]: change in ACh pEC50 in presence of M1 PAM compared to control curve (hM1 mAChR [2])	activation at 1 µM (hM1 mAChR [2]) [%]	ΔpEC50 [10 μM]: change in ACh pEC50 in presence of M1 PAM compared to control curve (hM1 mAChR [2])	activation at 10 µM (hM1 mAChR [2]) [%]	Kb (hM1 mAChR [1]; [4]) [µM]	Compound
65	1	–0.01±0.05	1.81±0.09	112	2.05±0.17	100	4	0.60±0.03	2.00±0.10	11	0.88±0.09	15.8 ± 2.3	1.31±0.15	58.3 ± 2.3	–	Cn1cc(-c2ccc(COc3ccccc3-c3ccn(C4CCCCC4O)c(=O)c3)cc2)cn1 (stereo not drawn) [Compound 1, 1-(2-Hydroxycyclohexyl)-4-(2-((4-(1-methyl-1H-pyrazol-4-yl)-benzyl)oxy)phenyl)pyridin-2(1H)-one]
955	1	0.07±0.05	2.98±0.10	380	2.58±0.18	562	6	0.78±0.04	2.75±0.11	6.03	1.88±0.37	70.8 ± 4	2.28±0.77	90.3 ± 3.1	–	Cn1cc(-c2ccc(COc3ccsc3-c3ccn(C4CCCCC4O)c(=O)c3)cc2)cn1 (stereo not drawn) [Compound 7h, 1-(2-Hydroxycyclohexyl)-4-(3-((4-(1-methyl-1H-pyrazol-4-yl)benzyl)oxy)thiophen-2-yl)pyridin-2(1H)-one]
14	–	–	1.16±0.17	52	1.72±0.20	30	1	–	1.48±0.11	29.5	0.29±0.05	4.8 ± 1.4	1.31±0.06	27 ± 1.5	30	Cn1cc(-c2ccc(COc3ccccc3-c3ccn(C4CCCCC4=O)c(=O)c3)cc2)cn1 (stereo not drawn) [Compound 13d, 4-(2-((4-(1-Methyl-1H-pyrazol-4-yl)benzyl)oxy)phenyl)-1-(2-oxocy-clohexyl)pyridin-2(1H)-one]
95	2	0.28±0.04	1.98±0.10	120	2.08±0.13	–	3	0.54±0.02	1.89±0.07	3.31	–	100	–	100	3	Cn1cc(-c2ccc(COc3ncccc3-c3cc(=O)n(C4CCCCC4O)cn3)cc2)cn1 (stereo not drawn) [Compound 26a, 3-(2-Hydroxycyclohexyl)-6-(2-((4-(1-methyl-1H-pyrazol-4-yl)benzyl)oxy)pyridin-3-yl)pyrimidin-4(3H)-one]

Compound	αβ (functional cooperativity with ACh) (M1 mAChR)	τB (intrinsic efficacy of the modulator) (M1 mAChR)	log τB (logarithm of intrinsic efficacy of the modulator) (M1 mAChR)	log αβ (logarithm of functional cooperativity between ACh and modulator) (M1 mAChR)	α (binding cooperativity with ACh) (hM1 mAChR [1]; in parentheses)	log αACh (logarithm of binding cooperativity between ACh and modulator) (hM1 mAChR [1]; mean ± SEM)	αβ (functional cooperativity with ACh) (hM1 mAChR [2])	τB (intrinsic efficacy of the modulator) (hM1 mAChR [2])	log τB (logarithm of intrinsic efficacy of the modulator) (hM1 mAChR [2])	log αβ (logarithm of functional cooperativity between ACh and modulator) (hM1 mAChR [2])	Kb (hM1 mAChR [1]; [3]) [µM]	ΔpEC50 [1 μM]: change in ACh pEC50 in presence of M1 PAM compared to control curve (hM1 mAChR [2])	activation at 1 µM (hM1 mAChR [2]) [%]	ΔpEC50 [10 μM]: change in ACh pEC50 in presence of M1 PAM compared to control curve (hM1 mAChR [2])	activation at 10 µM (hM1 mAChR [2]) [%]	Kb (hM1 mAChR [1]; [4]) [µM]
COc1ccc(Cn2cc(C(=O)O)c(=O)c3ccccc32)cc1 [BQCA, reference compound]	89	1	–0.03±0.10	1.95±0.19	245	2.39±0.22	389	6	0.76±0.03	2.59±0.07	–	–	–	–	–	–
